The target in one assay is T1, recombinant human ERK5 (Homo sapiens, UniProt Q13164).
T1 construct: Catalytically active kinase domain of recombinant human ERK5 enzyme was purchased from Carna Biosciences; purchased Carna Biosciences
The assay is described as follows: TR-FRET (LANCE Ultra) biochemical assay of ERK5 kinase activity. The following applies: TR-FRET enzymatic assay, phosphorylated ERK5; read-out: ERK5 IC50. The procedure:
Catalytically active kinase domain of recombinant human ERK5 enzyme was purchased from Carna Biosciences. […] The inhibitory potency of compounds against ERK5 was evaluated using the LANCE Ultra technology from PerkinElmer according to the manufacturer’s instructions. Briefly, 3 µl of different concentrations of ATP and 100 nM ULight-eIF4E-binding protein 1 (Thr37/46) peptide (Perkin-Elmer catalogue No. TRF0128) were incubated in the presence of serially diluted compound or DMSO control at room temperature in 384-well Greiner white polystyrene assay plates. The reaction was initiated by the addition of 3 µl of 10 nM kinase. The assay buffer consisted of 1 mM DTT, 10 mM MgCl2, 1 mM EGTA, 0.01%(v/v) Tween 20 in 50 mM HEPES pH 7.5. After 60 min incubation, the reaction was stopped by the addition of 6 µl stop/detection reagent mixture consisting of 20 mM EDTA and 4 nM Eu-anti-phospho-eIF4E-binding protein 1 (Thr37/46) antibody (PerkinElmer catalogue No. TRF0216) diluted in detection buffer. The plates were incubated for 1 h before the fluorescence was measured at 615 and 665 nm with an excitation wavelength of 320 nm using an EnVision Multilabel Reader from Perkin-Elmer in time-resolved fluorescence resonance energy transfer (TR-FRET) mode. The calculated signal ratio at 665/615 nm is proportional to the kinase activity. The concentration of compound producing 50% inhibition of the kinase activity (IC50) was calculated by using GraphPad Prism to fit the data to a symmetrical sigmoidal curve.

The next assay concerns ERK5. The arrangement: method as in Deng et al., 2013. To be noted: Data retrieved from the literature; ref Deng et al., 2013; cited from earlier work.

Structures are written as SMILES.

Usually IC50 stands for the midpoint of a concentration-inhibition curve.

T1 sequence (Q13164 55-347 limits assumed): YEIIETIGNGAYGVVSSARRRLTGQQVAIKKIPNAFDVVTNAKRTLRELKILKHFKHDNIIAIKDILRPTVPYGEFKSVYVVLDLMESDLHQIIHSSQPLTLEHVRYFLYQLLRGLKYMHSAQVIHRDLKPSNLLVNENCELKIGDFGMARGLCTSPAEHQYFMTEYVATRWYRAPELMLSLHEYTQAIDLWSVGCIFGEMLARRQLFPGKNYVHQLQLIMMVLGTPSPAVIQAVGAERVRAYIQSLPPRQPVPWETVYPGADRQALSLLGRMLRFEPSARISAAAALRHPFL

`CC(NC(=O)n1nc(N)nc1Nc1ccc(Cl)cc1)c1ccccc1` (stereo not drawn) [Compound 6]: the IC50 on recombinant human ERK5 was above 10 µM.

As to `COc1cc(C(=O)N2CCC(N3CCN(C)CC3)CC2)ccc1Nc1ncc2c(n1)N(C1CCCC1)c1ccccc1C(=O)N2C` [Compound 1], the concentration for half-maximal inhibition (IC50) in the assay on ERK5 was 0.082 µM.

As for `CC(C)NC(=O)n1nc(N)nc1Nc1ccc(Cl)cc1` [Compound 4], the IC50 on recombinant human ERK5 was above 10 µM.

These data come from paper PMC4854315, “Discovery of a novel allosteric inhibitor-binding site in ERK5: comparison with the canonical kinase hinge ATP-binding site” (Acta Crystallographica. Section D, Structural Biology, 2016).
